What was measured:
[1] = system: hEHM (human engineered heart muscle); experiment: Spontaneous contraction frequency of hEHM by light microscopy; type: cell-based; details: n=6
Procedure: (§1) The inventors analyzed force of contraction and twitch kinetics (contraction time: time from 50% to maximal contraction; relaxation time: time from maximal contraction to 50% relaxation) under isometric conditions as described before (Zimmermann et al. Circ Res 90: 223-230 (2002), incorporated herein by reference). Contraction frequency was assessed by light microcopy (unstimulated spontaneous contractions) immediately after removing EHMs from the incubator.

[2] = system: hEHM (human engineered heart muscle); experiment: Isometric force of contraction and twitch kinetics of hEHM; type: cell-based
Procedure: as §1

[3] = system: hEHM (human engineered heart muscle); experiment: hEHM formation and contractile force with varied matrix, basal medium and supplements; type: cell-based; details: for force-generation of hEHM: 10 ng/ml added to serum-free medium, hES2; for hEHM formation and function by matrix component: contractile force at 2 mmol/L extracellular calcium
Procedure: The inventors constructed hEHMs using a modified EHM-engineering protocol (Zimmermann et al. Circ Res 90: 223-230 (2002), incorporated herein by reference). Briefly, EHMs (reconstitution volume: 450 μl) were prepared by pipetting a mixture containing freshly dispersed ESC-derivatives (1×10^4-15×10^6 cells in Iscove-Medium with 20% fetal calf serum, 1% non-essential amino acids, 2 mmol/l glutamine, 100 μmol/l β-mercaptoethanol, 100 U/ml penicillin, and […]), pH-neutralized collagen type I from rat tails (0.4 mg/EHM), Matrigel™ (10% v/v; Becton Dickenson or tebu), and concentrated serum-containing culture medium (2× DMEM, 20% horse serum, 4% chick embryo extract, 200 U/ml penicillin, and […] streptomycin) in circular molds (inner/outer diameter: 2/4 mm; height: 5 mm) (Table 1). hEHM condensed quickly within the casting molds and were transferred onto static stretch devices (110% of slack length) (Zimmermann et al. Nat Med 12: 452-458 (2006), incorporated herein by reference) on culture day 3. Medium was changed every other day. hEHM culture under stretch was performed for 7 days.
A protocol with reduced xenogenic components (Matrix protocol, Table 1) was established to enable pre-GMP hEHM. Cells were reconstituted in a mixture of pH-neutralized bovine collagen (Devros Medical, 0.4 mg/EHM), concentrated serum-containing culture medium (2× DMEM, 40% fetal calf serum, 200 U/ml penicillin, and […] streptomycin) and cultured in Iscove-Medium with 20% fetal calf serum, 1% non-essential amino acids, 2 mmol/l glutamine, 0.3 mmol/l ascorbic acid, 100 μmol/l β-mercaptoethanol, 100 U/ml penicillin, and 100 μg/ml streptomycin.
To generate fully defined, serum-free EHM cells were reconstituted in a mixture of pH-neutralized bovine collagen (Devros Medical, 0.4 mg/EHM), concentrated serum-free medium medium (2× DMEM, 8% B27, 200 U/ml penicillin, and […] streptomycin) and cultured in Iscove-Medium with full 4% B27, 1% non-essential amino acids, 2 mmol/l glutamine, 0.3 mmol/l ascorbic acid, 20 ng/ml IGF-1, 10 ng/ml FGF2, 10 ng/ml VEGF, 5 ng/ml TGFb1 (culture day 0-3 only), and 100 U/ml penicillin, and 100 μg/ml streptomycin (Serum-free protocol, Table 1). B27 supplement contains vitamins (Biotin, DL Alpha Tocopherol, Acetate DL Alpha-Tocopherol, Vitamin A), proteins and enzymes (BSA, fatty acid free Fraction V, Catalase, Human Recombinant Insulin, Human Transferrin, Superoxide Dismutase), and other cell-supporting components (Corticosterone, D-Galactose, Ethanolamine, Glutathione (reduced), L-Carnitine, Linoleic Acid, Linolenic Acid, Progesterone, Putrescine, Sodium Selenite, and T3 (triodo-I-thyronine). Where indicated full B27 (Invitrogen, A1486701) was compared to B27 without antioxidants (Invitrogen, #10889038) and B27 without insulin (Invitrogen, #0050129SA). B27 supplement was replaced by a custom-made supplement consisting of Albumin, Transferrin, Ethanolamine, Sodium selenite, L-Carnitine HCl, Hydrocortisone, Fatty acid supplement, and Triiodo-L-thyronine (Table 2).
as §1

[4] = system: human embryoid body (EB) cultures; experiment: Flow cytometry-based screen of media and supplements in 3D human embryoid body (EB) cultures; details: for cell death (sub-G1 fraction): compared to serum free medium without the factor or to other media, growth factors at above EC50 concentrations; for cardiomyocyte actinin expression (CM maturation): mean actinin fluorescence per cardiomyocyte
Procedure: EBs cultured in different medium conditions were made into a single cell suspension as described above. Cells were fixed in 70% ice cold ethanol under constant mixing. The cells were stained for sarcomeric actinin (Sigma) to label cardiomyocytes and DAPI to analyze nuclear DNA content and to exclude cell doublets. Cells were run on a LSRII Cytometer (BD). At least 10,000 live cells were analyzed. The following parameters were then analyzed, (1) cell death (percentage of cells in the sub-G1 fraction), (2) cardiomyocyte and non-myocyte percentage (Actinin-positive and negative cells, respectively) (3) Cardiomyocte maturation (mean actinin fluorescence), (4) cardiomyocyte and (5) non-myocyte size (based on sideward scatter area, SSC-A).

[5] = compared to serum free medium without the factor

Molecule: CC(C)Cn1c(=O)n(C)c(=O)c2[nH]cnc21 [IBMX, 3-isobutyl-1-methylxanthine]
- spontaneous beating rate ([1]; IBMX 100 μmol/l in addition to isoprenaline): 1.6±0.1 Hz

Molecule: [Ca+2] [calcium]
- maximal twitch mean force ([2]; at 2.4 mmol/l calcium, n=17): 130±13 μN
- EC50 ([2]; increasing extracellular calcium, n=17): 800 ± 40 µM
- maximal force and isoprenaline response of hEHM in RPMI with added calcium ([3]; RPMI plus 0.8 mM CaCl (final free calcium 1.242 mmol/L) versus RPMI (0.424 mmol/L)): lead to measurable maximal force and better responsiveness to isoprenalin

Molecule: CC(C)NCC(O)c1ccc(O)c(O)c1 (stereo not shown) [isoprenaline, reference compound]
- spontaneous beating frequency ([1]; incubation with isoprenaline, hEHM at 10 days, baseline 0.8±0.05 Hz at 37° C.): 1.2±0.1 Hz
- relaxation time ([2]; 1 μmol/l isoprenaline at 0.4 mmol/l extracellular calcium, n=12): 113 ± 2.3 ms
- increase in force of contraction ([2]; 1 μmol/l isoprenaline at sub-EC50 extracellular calcium (0.4 mmol/l), n=12): 47±12%

Molecule: FGF-2: peptide growth factor (Peprotech, AF-100-18B)
- force-generation of hEHM [3]: able to enhance force-generation
- non-myocyte growth [4, 5]: supported non-myocyte growth
- cardiomyocyte cell size ([4]; sideward scatter area): increased cardiomyocyte cell size

Molecule: IGF-1: peptide growth factor (Peprotech, AF-100-11)
- cell death (sub-G1 fraction) [4]: appeared to protect from cell death

Molecule: Neuregulin-1
- cell death (sub-G1 fraction) [4]: caused substantial cell death

Molecule: TGFβ1: peptide growth factor (Peprotech, 100-21)
- formation of functional EHM ([3]; addition to serum-free medium from day 0 to 3 (5 ng/ml)): essential
- formation of functional EHM, prolonged treatment ([3]; prolonged treatment (culture day 0-10) versus day 0-3): did not yield an additional benefit
- cardiomyocyte actinin expression (CM maturation) [4]: enhanced individual cardiomyocyte actinin expression

Molecule: VEGF
- force-generation of hEHM [3]: able to enhance force-generation
- cardiomyocyte actinin expression (CM maturation) [4]: enhanced individual cardiomyocyte actinin expression

Molecule: fibronectin
- hEHM formation and function by matrix component [3]: did not yield additional benefit

Molecule: laminin
- hEHM formation and function by matrix component [3]: did not yield additional benefit

B1: TGFβ2: peptide growth factor (protein, UniProt P61812 303-414, looked up)
Transforming growth factor …: ALDAAYCFRNVQDNCCLRPLYIDFKRDLGWKWIHEPKGYNANFCAGACPYLWSSDTQHSRVLSLYNTINPEASASPCCVSQDLEPLTILYYIGKTPKIEQLSNMIVKSCKCS
modifications: Transforming growth factor beta-2
- overall effect in growth factor screen [4, 5]: had no beneficial effect

B2: PDGF-BB: peptide growth factor (protein, UniProt P01127 82-190, looked up)
Platelet-derived growth …: SLGSLTIAEPAMIAECKTRTEVFEISRRLIDRTNANFLVWPPCVEVQRCSGCCNNRNVQCRPTQVQLRPVQVRKIEIVRKKPIFKKATVTLEDHLACKCETVAAARPVT
- cell death (sub-G1 fraction) [4]: caused substantial cell death

B3: CT-1: peptide growth factor (Cardiotrophin-1) (protein, UniProt Q16619 1-201, looked up)
Cardiotrophin-1: MSRREGSLEDPQTDSSVSLLPHLEAKIRQTHSLAHLLTKYAEQLLQEYVQLQGDPFGLPSFSPPRLPVAGLSAPAPSHAGLPVHERLRLDAAALAALPPLLDAVCRRQAELNPRAPRLLRRLEDAARQARALGAAVEALLAALGAANRGPRAEPPAATASAASATGVFPAKVLGLRVCGLYREWLSRTEGDLGQLLPGGSA
- cell death (sub-G1 fraction) [4]: caused substantial cell death

Reference: US11492594B2, “Method for producing engineered heart muscle (EHM)” (GEORG-AUGUST-UNIVERSITÄT GÖTTINGEN STIFTUNG ÖFFENTLICHEN …, priority 2013, dated 2022)
